From US20230312577A1, “DUAL KINASE-BROMODOMAIN INHIBITORS” (MONASH UNIVERSITY, priority 2020, published 2023)

Test system: OPM2 cells
Assay: Cell proliferation assay (ViaLight, cellular ATP)
Format: cell-based
Conditions: Homo sapiens, OPM-2, 120 h, 5 days, 5 μM to 1 nM
Procedure: OPM2 cells (1×10^3) were plated in a 96 well plate. Test compounds were added to cells at final concentrations ranging from 5 μM to 1 nM. They were incubated for 5 days before they were analysed using ViaLight luminescence-based proliferation assays which detect cellular ATP, as per the manufacturer's instructions. All samples were prepared in technical triplicates. Data analysis was performed in GraphPad Prism version 7.00 for Mac OS X, (GraphPad Software, San Diego California USA) in order to calculate the GI50.

Row | SMILES | GI50
1 | CC(=O)N1c2ccc(-c3ccc(NC(=O)CNC(=O)c4nc5c(N6CCOCC6)nc(-c6cnc(N)nc6)cn5c4C)cc3)cc2CC[C@@H]1C [Cpd 048, (S)-N-(2-((4-(1-acetyl-2-methyl-1,2,3,4-tetrahydroquinolin-6-yl)phenyl)amino)-2-oxoethyl)-6-(2-aminopyrimidin-5-yl)-3-methyl-8-morpholinoimidazo[1,2-a]pyrazine-2-carboxamide] | ≤ 0.1 µM
2 | CC(=O)N1c2ccc(-c3cccc(NC(=O)CNC(=O)c4sc5c(N6CCOCC6)nc(-c6cnc(N)nc6)nc5c4C)c3)cc2CC[C@@H]1C [Cpd 049, (S)-N-(2-((3-(1-acetyl-2-methyl-1,2,3,4-tetrahydroquinolin-6-yl)phenyl)amino)-2-oxoethyl)-2-(2-aminopyrimidin-5-yl)-7-methyl-4-morpholinothieno[3,2-d]pyrimidine-6-carboxamide] | 0.1 to 0.5 µM
3 | CC(=O)N1c2ccc(-c3cccc(CCNC(=O)c4nc5c(N6CCOCC6)nc(-c6cnc(N)nc6)cn5c4C)c3)cc2CC[C@@H]1C [Cpd 050, (S)-N-(3-(1-acetyl-2-methyl-1,2,3,4-tetrahydroquinolin-6-yl)phenethyl)-6-(2-aminopyrimidin-5-yl)-3-methyl-8-morpholinoimidazo[1,2-a]pyrazine-2-carboxamide] | 0.1 to 0.5 µM
4 | CC(=O)N1c2ccc(-c3cccc(CCNC(=O)c4sc5c(N6CCOCC6)nc(-c6cnc(N)nc6)nc5c4C)c3)cc2CC[C@@H]1C [Cpd 051, (S)-N-(3-(1-acetyl-2-methyl-1,2,3,4-tetrahydroquinolin-6-yl)phenethyl)-2-(2-aminopyrimidin-5-yl)-7-methyl-4-morpholinothieno[3,2-d]pyrimidine-6-carboxamide] | 0.1 to 0.5 µM
5 | CC(=O)N1c2ccc(-c3cnn(C4CCN(Cc5sc6c(N7CCOCC7)nc(-c7cnc(N)nc7)nc6c5C)CC4)c3)cc2CC[C@@H]1C [Cpd 052, (S)-1-(6-(1-(1-((2-(2-aminopyrimidin-5-yl)-7-methyl-4-morpholinothieno[3,2-d]pyrimidin-6-yl)methyl)piperidin-4-yl)-1H-pyrazol-4-yl)-2-methyl-3,4-dihydroquinolin-1(2H)-yl)ethan-1-one] | > 0.5 µM
6 | CC(=O)N1c2ccc(-c3cnn(C4CCN(C(=O)c5sc6c(N7CCOCC7)nc(-c7cnc(N)nc7)nc6c5C)CC4)c3)cc2CC[C@@H]1C [Cpd 053, (S)-1-(6-(1-(1-(2-(2-aminopyrimidin-5-yl)-7-methyl-4-morpholinothieno[3,2-d]pyrimidine-6-carbonyl)piperidin-4-yl)-1H-pyrazol-4-yl)-2-methyl-3,4-dihydroquinolin-1(2H)-yl)ethan-1-one] | ≤ 0.1 µM
7 | CC(=O)N1c2ccc(-c3ccc(CNCc4sc5c(N6CCOCC6)nc(-c6cnc(N)nc6)nc5c4C)cc3)cc2CC[C@@H]1C [Cpd 055, (S)-1-(6-(4-((((2-(2-aminopyrimidin-5-yl)-7-methyl-4-morpholinothieno[3,2-d]pyrimidin-6-yl)methyl)amino)methyl)phenyl)-2-methyl-3,4-dihydroquinolin-1(2H)-yl)ethan-1-one] | > 0.5 µM
8 | CC(=O)N(Cc1ccc(-c2ccc3c(c2)CC[C@H](C)N3C(C)=O)cc1)Cc1sc2c(N3CCOCC3)nc(-c3cnc(N)nc3)nc2c1C [Cpd 056, (S)-N-(4-(1-Acetyl-2-methyl-1,2,3,4-tetrahydroquinolin-6-yl)benzyl)-N-((2-(2-aminopy-rimidin-5-yl)-7-methyl-4-morpholinothieno[3,2-d]pyrimidin-6-yl)methyl)acetamide] | 0.1 to 0.5 µM
9 | CC(=O)N1c2ccc(-c3ccc(CNC(=O)c4cn5cc(-c6cnc(N)cc6C(F)(F)F)nc(N6CCOCC6)c5n4)cc3)cc2CC[C@@H]1C [Cpd 057, (S)-N-(4-(1-Acetyl-2-methyl-1,2,3,4-tetrahydroquinolin-6-yl)benzyl)-6-(6-amino-4-(tri-fluoromethyl)pyridin-3-yl)-8-morpholinoimidazo[1,2-a]pyrazine-2-carboxamide] | > 0.5 µM
10 | COc1ccc(-c2cn3cc(C(=O)NCc4ccc(-c5ccc6c(c5)CC[C@H](C)N6C(C)=O)cc4)nc3c(N3CCOCC3)n2)cn1 [Cpd 058, (S)-N-(4-(1-Acetyl-2-methyl-1,2,3,4-tetrahydroquinolin-6-yl)benzyl)-6-(6-methoxypyridin-3-yl)-8-morpholinoimidazo[1,2-a]pyrazine-2-carboxamide] | 0.1 to 0.5 µM
11 | CC(=O)N1c2ccc(-c3ccc(CNC(=O)c4cn5cc(-c6cccc7[nH]ncc67)nc(N6CCOCC6)c5n4)cc3)cc2CC[C@@H]1C [Cpd 059, (S)-N-(4-(1-Acetyl-2-methyl-1,2,3,4-tetrahydroquinolin-6-yl)benzyl)-6-(1H-indazol-4-yl)-8-morpholinoimidazo[1,2-a]pyrazine-2-carboxamide] | ≤ 0.1 µM
12 | CC(=O)N1c2ccc(-c3ccc(CNC(=O)c4cn5cc(-n6c(C(F)F)nc7ccccc76)nc(N6CCOCC6)c5n4)cc3)cc2CC[C@@H]1C [Cpd 060, (S)-N-(4-(1-Acetyl-2-methyl-1,2,3,4-tetrahydroquinolin-6-yl)benzyl)-6-(2-(difluoromethyl)-1H-benzo[d]imidazol-1-yl)-8-morpholinoimidazo[1,2-a]pyrazine-2-carboxamide] | ≤ 0.1 µM
13 | CC(=O)N1c2ccc(-c3ccc(C(C)(C)NC(=O)c4cn5cc(-c6cnc(N)nc6)nc(N6CCOCC6)c5n4)cc3)cc2CC[C@@H]1C [Cpd 061, (S)-N-(2-(4-(1-Acetyl-2-methyl-1,2,3,4-tetrahydroquinolin-6-yl)phenyl)propan-2-yl)-6-(2-aminopyrimidin-5-yl)-8-morpholinoimidazo[1,2-a]pyrazine-2-carboxamide] | 0.1 to 0.5 µM
14 | CC(=O)N1c2ccc(-c3ccc([C@H](C)NC(=O)c4cn5cc(-c6cnc(N)nc6)nc(N6CCOCC6)c5n4)cc3)cc2CC[C@@H]1C [Cpd 062, N-((S)-1-(4-((S)-1-Acetyl-2-methyl-1,2,3,4-tetrahydroquinolin-6-yl)phenyl)ethyl)-6-(2-aminopyrimidin-5-yl)-8-morpholinoimidazo[1,2-a]pyrazine-2-carboxamide] | ≤ 0.1 µM
15 | CC(=O)N1c2ccc(-c3ccc([C@@H](C)NC(=O)c4cn5cc(-c6cnc(N)nc6)nc(N6CCOCC6)c5n4)cc3)cc2CC[C@@H]1C [Cpd 063, N-((R)-1-(4-((S)-1-Acetyl-2-methyl-1,2,3,4-tetrahydroquinolin-6-yl)phenyl)ethyl)-6-(2-aminopyrimidin-5-yl)-8-morpholinoimidazo[1,2-a]pyrazine-2-carboxamide] | ≤ 0.1 µM
16 | CC(=O)N1c2ccc(-c3ccc(CNC(=O)c4cn5cc(-c6cnc(N)nc6)nc(N6CCCCC6)c5n4)cc3)cc2CC[C@@H]1C [Cpd 064, (S)-N-(4-(1-Acetyl-2-methyl-1,2,3,4-tetrahydroquinolin-6-yl)benzyl)-6-(2-aminopyrimidin-5-yl)-8-(piperidin-1-yl)imidazo[1,2-a]pyrazine-2-carboxamide] | 0.1 to 0.5 µM
17 | CC(=O)N1c2ccc(-c3ccc(CNC(=O)c4cc5c(N6CCOCC6)nc(-c6cnc(N)nc6)cn5n4)cc3)cc2CC[C@@H]1C [Cpd 067, (S)-N-(4-(1-Acetyl-2-methyl-1,2,3,4-tetrahydroquinolin-6-yl)benzyl)-6-(2-aminopyrimidin-5-yl)-4-morpholinopyrazolo[1,5-a]pyrazine-2-carboxamide] | ≤ 0.1 µM
18 | CC(=O)N1c2ccc(-c3ccc(CNC(=O)c4cc5c(N6CCOCC6)nc(-c6cnc(N)nc6)c(Cl)n5n4)cc3)cc2CC[C@@H]1C [Cpd 068, (S)-N-(4-(1-Acetyl-2-methyl-1,2,3,4-tetrahydroquinolin-6-yl)benzyl)-6-(2-aminopyrimidin-5-yl)-7-chloro-4-morpholinopyrazolo[1,5-a]pyrazine-2-carboxamide] | ≤ 0.1 µM
19 | CC(=O)N1c2ccc(-c3ccc(CNC(=O)c4cc5c(N6CCOCC6)nc(-c6cnc(N)nc6)cn5c4)cc3)cc2CC[C@@H]1C [Cpd 069, (S)-N-(4-(1-Acetyl-2-methyl-1,2,3,4-tetrahydroquinolin-6-yl)benzyl)-3-(2-aminopyrimidin-5-yl)-1-morpholinopyrrolo[1,2-a]pyrazine-7-carboxamide] | ≤ 0.1 µM
20 | CC(=O)N1c2ccc(-c3ccc(CNC(=O)c4cn5c(N6CCOCC6)nc(-c6cnc(N)nc6)cc5n4)cc3)cc2CC[C@@H]1C [Cpd 070, (S)-N-(4-(1-Acetyl-2-methyl-1,2,3,4-tetrahydroquinolin-6-yl)benzyl)-7-(2-aminopyrimidin-5-yl)-5-morpholinoimidazo[1,2-c]pyrimidine-2-carboxamide] | ≤ 0.1 µM
21 | CC(=O)N1c2ccc(-c3ccc(CNC(=O)c4nc5c(N6CCOCC6)nc(-c6cnc(N)nc6)nc5n4C)cc3)cc2CC[C@@H]1C [Cpd 071, (S)-N-(4-(1-Acetyl-2-methyl-1,2,3,4-tetrahydroquinolin-6-yl)benzyl)-2-(2-aminopyrimidin-5-yl)-9-methyl-6-morpholino-9H-purine-8-carboxamide] | ≤ 0.1 µM
22 | CC(=O)N1c2ccc(-c3ccc(CNC(=O)c4nc5c(N6CCOCC6)nc(-c6cnc(N)nc6)cn5n4)cc3)cc2CC[C@@H]1C [Cpd 072, (S)-N-(4-(1-Acetyl-2-methyl-1,2,3,4-tetrahydroquinolin-6-yl)benzyl)-6-(2-aminopyrimidin-5-yl)-8-morpholino-[1,2,4]triazolo[1,5-a]pyrazine-2-carboxamide] | ≤ 0.1 µM
23 | CC(=O)N1c2ccc(-c3ccc(CNC(=O)c4nc5c(N6CCOCC6)cc(-c6cnc(N)nc6)cn5n4)cc3)cc2CC[C@@H]1C [Cpd 073, (S)-N-(4-(1-Acetyl-2-methyl-1,2,3,4-tetrahydroquinolin-6-yl)benzyl)-6-(2-aminopyrimidin-5-yl)-8-morpholino-[1,2,4]triazolo[1,5-a]pyridine-2-carboxamide] | ≤ 0.1 µM
24 | CC(=O)N1c2ccc(-c3ccc(CNC(=O)c4cn5cc(-c6cnc(N)nc6)cc(N6CCOCC6)c5n4)cc3)cc2CC[C@@H]1C [Cpd 074, (S)-N-(4-(1-Acetyl-2-methyl-1,2,3,4-tetrahydroquinolin-6-yl)benzyl)-6-(2-aminopyrimidin-5-yl)-8-morpholinoimidazo[1,2-a]pyridine-2-carboxamide] | ≤ 0.1 µM
